Experimental findings from US20230140972A1, “GLYCEROL GLUCOSIDE-BASED COMPOUND AND COMPOSITION COMPRISING SAME FOR ULTRAVIOLET LIGHT SHIELD OR ANTI-INFLAMMATION” (ATHENA CO., LTD., priority 2020, published 2023) are described below.

What all share (assay type): cell-based, mouse
Series [1] has as its system IL-6 production in RAW264.7 cells. Kind of series: IL-6 production inhibition using ELISA assay. The conditions noted are these: LPS 10 ng/mL. The method, then: An IL-6 ELISA assay was used to evaluate an IL-6 production inhibition ability of the sample in RAW264.7 cells.
Specifically, subcultured RAW264.7 cells were aliquoted into a 6-well dish at 1.5×10^6 cells/well and cultured for 24 hours at 37° C. in an incubator containing 5% carbon dioxide, and then a culture media was replaced with a serum-free media. Then, each sample was diluted by concentration and treated onto the cells with LPS (final 10 ng/mL). After culturing for 24 hours, the cell culture medium was recovered and an IL-6 ELISA assay was performed.
50 μL of an assay diluent was put into each well, and 50 μL of each of a standard solution and a cell culture solution were added to each well and reacted at room temperature for 2 hours. Thereafter, the reaction solution was removed from each well, washed with a wash buffer, 100 μL of IL-6 conjugate was added, and after reaction at room temperature for 2 hours, the reaction solution was removed from each well and washing is performed with a wash buffer.
Next, 100 μL of a substrate solution was added and a reaction under light blocking was carried out at room temperature, and then 100 μL of a stop solution was added, and an absorbance was measured at 450 and 570 nm. Dexamethasone was used as a positive control group. After the test was conducted once, an IL-6 production amount was calculated by substituting the absorbance value into a IL-6 standard solution calibration curve, and then the IL-6 production inhibition rate (%) was calculated using Equation 4 below, and expressed as the mean±standard deviation of the experiment.
A general note: ELISA stands for enzyme-linked immunosorbent assay.

Series [2] relates to COX-2 mRNA in RAW264.7 cells. Description: COX-2 mRNA expression analysis (RT-qPCR). The conditions noted are these: LPS 100 ng/mL. The procedure: An RT-qPCR was performed to evaluate an mRNA expression inhibition ability of COX-2 and iNOS of the glycerol glucoside-based compound sample (EPS-S).
Specifically, subcultured RAW264.7 cells were aliquoted into a 60 mm dish at 1.5×10^6 cells, and cultured at 37° C. in an incubator containing 5% carbon dioxide for 24 hours, and then a culture media was replaced with a serum-free media. Then, each sample was diluted by concentration and treated onto the cells with LPS (final 100 ng/mL). After culturing for 24 hours, cells were recovered, RNA was extracted, and cDNA was synthesized. For cDNA, qPCR was performed after mixing Real-time PCR Master Mix with TaqMan probes of each of COX-2 and iNOS. Dexamethasone was used as a positive control group. The test was conducted once, and the mRNA expression inhibition rate was obtained by analyzing the result by the ΔΔCt method, and then substituted into Equation 6 below to obtain the mRNA expression inhibition rate of COX-2 and iNOS of the treated sample group compared to the negative control group.
In general terms: Quantitative PCR measures a nucleic acid by following its amplification.

Series [3] has as its system p-IκB. Kind of series: Western blot of p-IκB protein expression. As to conditions: RAW264.7 cells, LPS, 15 minutes, 100 ppm; untreated = 100, negative control 390.06. The method, then: (§1) A western blot was performed as follows to observe p-IKK, p-IκB and p-NF-κB protein expression abilities of the glycerol glucoside-based compound sample (EPS-S).
(§2) Specifically, the subcultured mouse-derived macrophage line, RAW264.7 cells, were aliquoted in a 60 mm dish at 1.5×10^6 cells, and cultured for 24 hours at 37° C. in an incubator containing 5% carbon dioxide, and then a culture media was replaced with a serum-free media. Then, the glycerol glucoside-based compound sample (EPS-S) was diluted by concentration and treated onto the cells with LPS (final 1 μg/mL). After culturing for 15 minutes, protein was lysed (lysis) to recover cytoplasmic and nuclear extracts, and proteins were separated by size through SDS-PAGE. After transferring the protein to a membrane through a transfer, a primary antibody was attached thereto and reacted at 4° C. overnight. After the primary reaction, a secondary antibody was attached thereto, and reacted at room temperature for 1 hour, an ECL solution was sprayed on the entire surface, and a band image was obtained through a bioimage analyzer. After obtaining a band intensity of each band through Image J, normalization was performed using β-acitn and substituted in Equation 7 below to obtain the expression rate of p-IKK, p-IκB and p-NF-κB proteins in the treated sample group compared to the untreated group.
(A western blot detects proteins with antibodies after separation by electrophoresis.)

Series [4] relates to RAW264.7 cells. Description: Cell viability measurement using MTT assay. As to conditions: vs untreated group. The procedure: In order to evaluate a cell viability of the glycerol glucoside-based compound sample (EPS-S), an MTT assay was performed.
Specifically, subcultured RAW264.7 cells and HDF cells were aliquoted into a 96-well plate at 1×10^5, respectively, and cultured for 24 hours at 37° C. in an incubator containing 5% carbon dioxide, and then, a culture media was replaced with a serum-free media. Then, each sample was treated onto each cell by concentration. After culturing for 24 hours, an MTT solution was put into each well, reacted for 2 hours under light blocking, a supernatant was removed, a formed formazan was completely dissolved in DMSO, and an absorbance was measured at 540 nm with a microplate reader. In such a case, SDS was used as a positive control group. The test result value was calculated as in Equation 1 below and expressed as the cell viability compared to an untreated group, and was expressed as a mean±standard deviation.

For series [5], the system named is p-NF-κB. Description: Western blot of p-NF-κB protein expression. The conditions noted are these: RAW264.7 cells, LPS, 15 minutes, 100 ppm; untreated = 100, negative control 222.25. The procedure:
as §1, §2

For series [6], the system named is p-IKK. Description: Western blot of p-IKK protein expression. As to conditions: RAW264.7 cells, LPS, 15 minutes, 100 ppm; untreated = 100, negative control 1001.95. The procedure: as §1, §2

Several values for one entry are separate records, joined by “and”; a condition that tells them apart may be missing. Identical values can stand only once.

Broadly, the inhibition is the change of the read-out against control, counted positive when it falls. As for `C[C@@H]1C[C@H]2[C@@H]3CCC4=CC(=O)C=C[C@]4(C)[C@@]3(F)[C@@H](O)C[C@]2(C)[C@@]1(O)C(=O)CO` [Dexamethasone], in series [1] (24 h, 10 Mm (10 μM)), the “IL-6 production inhibition ability” value is 55.97%. For the same compound, the inhibition at 1 µM in series [1] (Mus musculus, RAW264.7, 24 h, 1 μM, read-out: IL-6 production inhibition ability) was 12.7%. The inhibition at 5 µM in series [1] (Mus musculus, RAW264.7, 24 h, 5 μM, read-out: IL-6 production inhibition ability) came to 48.4%. The inhibition at 20 µM in series [1] (Mus musculus, RAW264.7, 24 h, 20 μM, read-out: IL-6 production inhibition ability) is 63.3%. Moreover, in series [1] (Mus musculus, RAW264.7, 24 h, 50 μM (text b146), read-out: IL-6 production inhibition rate), the inhibition at 50 µM is 88.7%. In addition, the “COX-2 mRNA expression inhibition rate” value was determined as 22.64 ± 1.27% in series [2] (24 h, 1 μM); 22.64% in series [2] (24 h, 1 μM, listed as dexamethasone); 71.72 ± 0.69% in series [2] (24 h, 5 μM); 71.72% in series [2] (24 h, 5 μM, listed as dexamethasone); 81.78 ± 0.60% in series [2] (24 h, 20 μM); 81.78% in series [2] (24 h, 20 μM, listed as dexamethasone). For the same compound, the “COX-2 mRNA expression inhibition rate” value was 84.23 ± 0.41% in series [2] (24 h, 80 μM); 84.23% in series [2] (24 h, 80 μM, listed as dexamethasone); 76.82 ± 1.73% in series [2] (24 h, 10 Mm (table head; text 10 μM)); 76.82% in series [2] (24 h, 10 Mm (table head; text 10 μM), listed as dexamethasone).
A word on the cell viability: it is a read-out of living cells in per cent, often relative to untreated cells. Regarding `COCC(COC)OC1OC(CO)C(O)C(O)C1O` (stereo not drawn) [EPS-S], the inhibition at 10 ppm in series [1] (Mus musculus, RAW264.7, 24 h, 10 ppm, read-out: IL-6 production inhibition ability) turned out to be 10.1%. Moreover, in series [1] (Mus musculus, RAW264.7, 24 h, 100 ppm, read-out: IL-6 production inhibition ability), the inhibition at 100 ppm amounted to 23.8%. In series [1] (Mus musculus, RAW264.7, 24 h, 500 ppm, read-out: IL-6 production inhibition ability), the inhibition at 500 ppm came to 36.3%. Moreover, the inhibition at 1000 ppm in series [1] (Mus musculus, RAW264.7, 24 h, 1,000 ppm, read-out: IL-6 production inhibition ability) is 92.4%. In addition, in series [3], the “p-IκB protein expression rate” value stood at 203.52%. In addition, the cell viability in series [4] (24 h, 1 ppm) is 103.36% and 103.36 ± 0.88%; in series [4] (24 h, 10 ppm) it was 104.47% and 104.47 ± 3.61%; in series [4] (24 h, 100 ppm), 108.58% and 108.58 ± 1.99%; in series [4] (24 h, 1,000 ppm), 113.79% and 113.79 ± 0.13%. In series [5], the “p-NF-κB protein expression rate” value is recorded as 185.30%. For the same compound, the “COX-2 mRNA expression inhibition rate” value is −9.09% and −9.09 ± 3.16% in series [2] (24 h, 10 ppm); 74.44% and 74.44 ± 0.91% in series [2] (24 h, 100 ppm); 76.43% and 76.43 ± 1.11% in series [2] (24 h, 500 ppm); 83.19% and 83.19 ± 1.30% in series [2] (24 h, 1,000 ppm). For the same compound, in series [6], the “p-IKK protein expression rate” value stood at 514.98%.
